Assay results reported in PubChem BioAssay AID330 (DTP/NCI, 2004).
Several values for one entry are separate records, joined by “and”; a condition that tells them apart may be missing. Equal values may be shown once. Inconclusive results and toxic doses are left out. How the source made its calls: active means survival T/C of 150% or more; inactive means T/C below 125% in these data.

System: P388 leukemia ip, CD2F1 mice, survival T/C
Test: NCI In Vivo Anticancer Drug Screen. Data for tumor model P388 Leukemia (intraperitoneal) in CD2F1 (CDF1) mice
Conditions: endpoint: median survival time, higher = longer survival
Procedure, shortened: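 Mice carrying the transplanted tumor received test compound or vehicle. Survival was recorded in each group, and the value is the treated-group measurement divided by that of the vehicle-treated control group.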

[1] = dose: 50.0 mg/kg/injection, schedule: Q01DX005 (ip), vehicle: Klucel (hydroxypropylcellulose) (HPC)
[2] = dose: 100.0 mg/kg/injection, schedule: Q01DX005 (ip), vehicle: Klucel (hydroxypropylcellulose) (HPC)
[3] = dose: 200.0 mg/kg/injection, schedule: Q01DX005 (ip), vehicle: Klucel (hydroxypropylcellulose) (HPC)
[4] = dose: 100.0 mg/kg/injection, schedule: Q04DX002 (ip), vehicle: saline with Tween-80
[5] = dose: 200.0 mg/kg/injection, schedule: Q04DX002 (ip), vehicle: saline with Tween-80
[6] = dose: 100.0 mg/kg/injection, schedule: Q01DX001 (ip), vehicle: Klucel (hydroxypropylcellulose) (HPC)
[7] = dose: 200.0 mg/kg/injection, schedule: Q01DX001 (ip), vehicle: Klucel (hydroxypropylcellulose) (HPC)
[8] = dose: 400.0 mg/kg/injection, schedule: Q01DX001 (ip), vehicle: Klucel (hydroxypropylcellulose) (HPC)
[9] = dose: 50.0 mg/kg/injection, schedule: Q01DX009 (ip), vehicle: Klucel (hydroxypropylcellulose) (HPC)
[10] = dose: 100.0 mg/kg/injection, schedule: Q01DX009 (ip), vehicle: Klucel (hydroxypropylcellulose) (HPC)
[11] = dose: 12.5 mg/kg/injection, schedule: Q01DX005 (ip), vehicle: Klucel (hydroxypropylcellulose) (HPC)
[12] = dose: 25.0 mg/kg/injection, schedule: Q01DX005 (ip), vehicle: Klucel (hydroxypropylcellulose) (HPC)
[13] = dose: 100.0 mg/kg/injection, schedule: Q04DX003 (ip), vehicle: saline with Tween-80
[14] = dose: 200.0 mg/kg/injection, schedule: Q04DX003 (ip), vehicle: saline with Tween-80
[15] = dose: 400.0 mg/kg/injection, schedule: Q04DX003 (ip), vehicle: saline with Tween-80
[16] = dose: 12.5 mg/kg/injection, schedule: Q01DX009 (ip), vehicle: Klucel (hydroxypropylcellulose) (HPC)
[17] = dose: 25.0 mg/kg/injection, schedule: Q01DX009 (ip), vehicle: Klucel (hydroxypropylcellulose) (HPC)
[18] = dose: 60.0 mg/kg/injection, schedule: Q01DX005 (ip), vehicle: Klucel (hydroxypropylcellulose) (HPC)
[19] = dose: 120.0 mg/kg/injection, schedule: Q01DX005 (ip), vehicle: Klucel (hydroxypropylcellulose) (HPC)
[20] = dose: 50.0 mg/kg/injection, schedule: Q01DX005 (ip), vehicle: saline with Tween-80
[21] = dose: 100.0 mg/kg/injection, schedule: Q01DX005 (ip), vehicle: saline with Tween-80
[22] = dose: 200.0 mg/kg/injection, schedule: Q01DX005 (ip), vehicle: saline with Tween-80
[23] = dose: 60.0 mg/kg/injection, schedule: Q01DX005 (ip), vehicle: saline with Tween-80
[24] = dose: 120.0 mg/kg/injection, schedule: Q01DX005 (ip), vehicle: saline with Tween-80
[25] = dose: 240.0 mg/kg/injection, schedule: Q01DX005 (ip), vehicle: saline with Tween-80

Measured: T/C

CCCCCCOC(=O)c1ccccc1NC(=O)NN1CCCCCC1
inactive: [1] 100 % of control | [2] 102 % of control | [3] 100 % of control

CN(N=C1C(N)=NN=C1N)c1ccccc1
inactive: dose: 50.0 mg/kg/injection, schedule: Q04DX002 (ip), vehicle: saline with Tween-80 106 % of control | [4] 93 % of control | [5] 100 % of control

CCCC1N[C@H](C(=O)O)CS1 (stereo partly specified)
inactive: dose: 50.0 mg/kg/injection, schedule: Q01DX001 (ip), vehicle: Klucel (hydroxypropylcellulose) (HPC) 100 % of control | [6] 97 % of control | [7] 102 % of control | [8] 100 % of control

c1ccc2c(c1)N=Nc1ccccc1OCCOCCOCCOCCO2
inactive: [4] 106 % of control | [5] 100 % of control | dose: 400.0 mg/kg/injection, schedule: Q04DX002 (ip), vehicle: saline with Tween-80 99 % of control

CCn1c2nc(=O)n(C)c(=O)c-2[n+]([O-])c2cc(Br)ccc21
inactive: dose: 6.25 mg/kg/injection, schedule: Q04DX002 (ip), vehicle: saline with Tween-80 100 % of control | dose: 12.5 mg/kg/injection, schedule: Q04DX002 (ip), vehicle: saline with Tween-80 96 % of control | dose: 25.0 mg/kg/injection, schedule: Q04DX002 (ip), vehicle: saline with Tween-80 89 % of control and 92 % of control

O=C(Nc1ccc(N=C=S)cc1Cl)c1cc(Cl)cc(Cl)c1O
inactive: [9] 119 % of control | [10] 122 % of control

COc1ccc(C=C(C(=O)CCN(C)C)C(=O)CCN(C)C)cc1
inactive: dose: 50.0 mg/kg/injection, schedule: Q01DX005 (ip), vehicle: saline 105 % of control | dose: 100.0 mg/kg/injection, schedule: Q01DX005 (ip), vehicle: saline 100 % of control

CN(CC(O)C(O)CN(C)N=O)N=O (stereo unspecified)
inactive: [6] 88 % of control | [7] 94 % of control | [8] 100 % of control

COc1cc(OC)c(/C=N/Nc2cc(C)nc3cc4c(cc23)OCO4)c(OC)c1
inactive: dose: 1.56 mg/kg/injection, schedule: Q01DX005 (ip), vehicle: Klucel (hydroxypropylcellulose) (HPC) 106 % of control | dose: 3.12 mg/kg/injection, schedule: Q01DX005 (ip), vehicle: Klucel (hydroxypropylcellulose) (HPC) 97 % of control | dose: 6.25 mg/kg/injection, schedule: Q01DX005 (ip), vehicle: Klucel (hydroxypropylcellulose) (HPC) 102 % of control and 91 % of control | [11] 100 % of control and 87 % of control | [12] 103 % of control

c1csc(CSc2ncnc3nc[nH]c23)c1
inactive: [13] 100 % of control | [14] 100 % of control | dose: 264.0 mg/kg/injection, schedule: Q04DX003 (ip), vehicle: saline with Tween-80 100 % of control | [15] 109 % of control

CC(C)(C)C1=CC(=C/C=C/c2cc(C(C)(C)C)[o+]c(C(C)(C)C)c2)C=C(C(C)(C)C)O1
inactive: dose: 1.56 mg/kg/injection, schedule: Q01DX009 (ip), vehicle: Klucel (hydroxypropylcellulose) (HPC) 105 % of control | dose: 3.12 mg/kg/injection, schedule: Q01DX009 (ip), vehicle: Klucel (hydroxypropylcellulose) (HPC) 96 % of control | dose: 6.25 mg/kg/injection, schedule: Q01DX009 (ip), vehicle: Klucel (hydroxypropylcellulose) (HPC) 109 % of control and 111 % of control | [16] 108 % of control and 116 % of control | [17] 109 % of control

N=C(N)c1ccc(N=Nc2ccc(N)cc2N)cc1
inactive: [18] 120 % of control | [19] 124 % of control

CCCCCCCOc1ccc(C(=O)O)cc1
inactive: [16] 105 % of control | [17] 111 % of control | [9] 107 % of control

Oc1ccc2ccccc2c1CN(Cc1c(O)ccc2ccccc12)C1CCCCC1
inactive: [20] 97 % of control | [21] 96 % of control | [22] 104 % of control

CCOc1cc(C)c(CC2NC(=O)NC2=O)cc1C(C)C (stereo unspecified)
inactive: dose: 100.0 mg/kg/injection, schedule: Q04DX003 (ip), vehicle: suspension in saline 100 % of control | dose: 200.0 mg/kg/injection, schedule: Q04DX003 (ip), vehicle: suspension in saline 100 % of control | dose: 400.0 mg/kg/injection, schedule: Q04DX003 (ip), vehicle: suspension in saline 88 % of control

COc1ccc(N2C(=O)c3ccc4c5ccc6c7c(ccc(c8ccc(c3c48)C2=O)c75)C(=O)NC6=O)cc1
inactive: [11] 89 % of control | [12] 90 % of control | [1] 90 % of control | [2] 90 % of control | [3] 89 % of control

S=P(NCCS)(N1CC1)N1CC1
inactive: [13] 109 % of control | [14] 122 % of control | [15] 91 % of control

COC(=O)c1cc(-c2ccc(Cl)c(Cl)c2)[nH]c(=O)c1C#N
inactive: [23] 100 % of control | [24] 103 % of control | [25] 94 % of control

CC(C)(C)c1cc(C(C)(C)C)c(P(C(O[Si](C)(C)C)=C(c2ccccc2)c2ccccc2)C(O[Si](C)(C)C)=C(c2ccccc2)c2ccccc2)c(C(C)(C)C)c1
inactive: [23] 94 % of control | [24] 99 % of control | [25] 93 % of control

Cc1c(C)c2ccc(N(C)C)cc2[nH]c1=O
inactive: [9] 113 % of control | [10] 106 % of control | dose: 200.0 mg/kg/injection, schedule: Q01DX009 (ip), vehicle: Klucel (hydroxypropylcellulose) (HPC) 106 % of control

CCCCN=C1NS(=O)(=O)c2ccccc21
inactive: [20] 103 % of control | [21] 107 % of control | [22] 103 % of control

CCN(CC)Cc1c(C)[nH]c2ccc3c(c2c1=O)CCCC3
inactive: [18] 91 % of control | [19] 93 % of control

COc1ccc(CCNC(=O)CC2CCN(Cc3ccccc3)CC2)cc1OC
inactive: [1] 100 % of control | [2] 100 % of control | [3] 95 % of control

COc1cccc(C(Nc2ncccn2)c2cc3c(cc2O)OCO3)c1O (stereo unspecified)
inactive: [23] 103 % of control | [24] 94 % of control | [25] 94 % of control

CC(/C=N/Nc1ccccc1)=N\N=c1/scc(-c2ccc(Br)cc2)n1-c1ccc(C)cc1
inactive: dose: 100.0 mg/kg/injection, schedule: Q01DX001 (ip), vehicle: saline with Tween-80 88 % of control | dose: 400.0 mg/kg/injection, schedule: Q01DX001 (ip), vehicle: saline with Tween-80 86 % of control

CCCN(CCC)C(C)C(O)c1ccc2cc(Br)c3ccccc3c2c1 (stereo unspecified)
inactive: [20] 98 % of control | [21] 99 % of control | [22] 100 % of control
